Where “and” joins values, the source holds several entries; their conditions need not be identical. Equal entries are not always repeated.
Details: Liquid; for viscosity: Capillary tube (Ostwald / Ubbelohde) method; for mass density: Vibrating tube method

COCOC [dimethoxymethane]
Details | mass density [kg/m3] | viscosity
218.09 K | – | 1.263 mPa·s
223.09 K | – | 1.099 mPa·s
228.1 K | – | 0.9649 mPa·s
228.11 K | – | 0.9648 mPa·s
233.1 K | – | 0.8557 mPa·s and 0.8556 mPa·s
233.16 K | 935.5 | –
238.11 K | – | 0.7648 mPa·s
243.14 K | – | 0.6886 mPa·s
243.15 K | – | 0.6885 mPa·s
243.16 K | 923.8 | –
248.14 K | – | 0.6248 mPa·s
253.13 K | – | 0.5705 mPa·s
253.14 K | – | 0.5705 mPa·s
253.16 K | 912.4 | –
258.12 K | – | 0.524 mPa·s
258.15 K | – | 0.5238 mPa·s
263.07 K | – | 0.4841 mPa·s
263.09 K | – | 0.4839 mPa·s
263.15 K | 899.6 | –
268.09 K | – | 0.4489 mPa·s
273.05 K | – | 0.4183 mPa·s
273.15 K | 886 | –
278.05 K | – | 0.3912 mPa·s
283.1 K | – | 0.3669 mPa·s
283.15 K | 872.3 | –
288.17 K | – | 0.3452 mPa·s and 0.3451 mPa·s
293.09 K | – | 0.3262 mPa·s
293.15 K | 858.1 | –
298.12 K | – | 0.3086 mPa·s
298.13 K | – | 0.3086 mPa·s
303.12 K | – | 0.2927 mPa·s
303.13 K | – | 0.2927 mPa·s
303.15 K | 842.8 | –
308.16 K | – | 0.2781 mPa·s
308.17 K | – | 0.2781 mPa·s
313.15 K | 827.9 | –
313.16 K | – | 0.2647 mPa·s
318.16 K | – | 0.2524 mPa·s
318.17 K | – | 0.2524 mPa·s
323.15 K | – | 0.241 mPa·s and 0.2409 mPa·s
323.16 K | 814.1 | –
328.14 K | – | 0.2303 mPa·s
333.14 K | – | 0.2202 mPa·s
333.15 K | 800 | 0.2202 mPa·s
338.15 K | – | 0.2107 mPa·s
343.15 K | 785.2 | 0.2017 mPa·s
348.16 K | – | 0.1931 mPa·s
353.12 K | – | 0.185 mPa·s
353.13 K | – | 0.185 mPa·s
353.16 K | 770.8 | –
358.16 K | – | 0.1771 mPa·s
363.11 K | 755.9 | –
363.15 K | – | 0.1696 mPa·s
368.14 K | – | 0.1624 mPa·s
368.16 K | – | 0.1623 mPa·s
373.14 K | – | 0.1554 mPa·s
378.15 K | – | 0.1486 mPa·s
383.15 K | – | 0.142 mPa·s
383.16 K | – | 0.142 mPa·s

From the NIST ThermoML archive (doi:10.1021/je049559v)
